This note sets out measurements from patent US7411002B2, “Polycationic sulfonamides and use thereof” (priority 2006, dated 2008).

Like-named read-outs stand apart in the source and are kept apart here.

A short description of test [1]: Rapid-throughput BODIPY-TR cadaverine (BC) fluorescence displacement assay for binding affinity to LPS. The settings on record: half-maximal effective displacement of BODIPY-TR cadaverine probe from LPS; 50 mM Tris buffer, pH 7.4; read-out: Binding affinity (BC displacement) ED50 value. How it is done: Rapid-throughput Fluorescence Displacement Assay for quantifying binding affinities to LPS. […] Polymyxin B (PMB), a peptide antibiotic known to bind and neutralize LPS^65 serves as the positive control and reference compound for every plate, enabling the quantitative assessment of repeatability and reproducibility (CV and Z′ factors) for the assay. Automated liquid handling is performed on a Precision 2000 automated microplate pipetting system, programmed using the Precision Power software, Bio-Tek Instruments Inc., VT, USA. Results are reported as half-maximal effective displacement of probe (ED50) (Tables A-F). In all experiments, Polymyxin B (PMB), a decapeptide antibiotic, known to bind and neutralize LPS,^66-69 is used as a reference compound.

Test [2] deals with LPS-induced nitric oxide production in murine macrophage J774A.1 cells. The experiment in a line: NO inhibition (Griess nitrite assay) in LPS-stimulated murine macrophage J774A.1 cells. Format: cell-based. The settings on record: Mus musculus, J774.A1, 10 ng/ml LPS, 16 h. How it is done: Assessment of neutralization of LPS toxicity: NO inhibition activity. Nitric oxide production is measured as total nitrite in murine macrophage J774A.1 cells using the Griess assay^70 as described previously.^71 J774A.1 cells are plated at ˜10^5/ml in a volume of 40 μl/well, in 384-well, flat-bottomed, cell culture treated microtiter plates and subsequently stimulated with 10 ng/ml lipopolysaccharide (LPS). Concurrent to LPS stimulation, serially diluted concentrations of test compounds are added to the cell medium and left to incubate for 16 h. Polymyxin B is used as reference compound in each plate. Positive-(LPS stimulation only) and negative-controls (J774A.1 medium only) are included in each experiment. Nitrite concentrations are measured by adding 40 μl of supernatant to equal volumes of Griess reagents (50 μl/well; 0.1% NED solution in ddH2O and 1% sulfanilamide, 5% phosphoric acid solution in ddH2O) and incubating for 15 minutes at room temperature in the dark. Absorbance at 535 nm is measured using a Molecular Devices Spectramax M2 multifunction plate reader (Sunnyvale, Calif.). Nitrite concentrations are interpolated from standard curves obtained from serially diluted sodium nitrite standards. IC50 values are determined for compounds that neutralize LPS inhibit NO production in a dose-dependent manner (Tables A-F). Results in this assay parallel those in the binding assay.

Test [3] relates to LPS-induced NF-κB induction in human embryonic kidney 293 cells cotransfected with TLR4, CD14 and MD2. The experiment in a line: Inhibition of LPS induction of NF-κB (seAP reporter) in HEK 293 cells cotransfected with TLR4, CD14 and MD2. The settings on record: for IC50: inhibition of LPS-induced NF-κB induction, HEK 293 TLR4/CD14/MD2 reporter cells, read-out: NFκβ inhibition IC50 value; for activity in words (LPS binding / cell-based cytokine inhibition, comment on Table F): qualitative comparison with spermine-sulfonamide counterparts. It is filed as cell-based. An excerpt:
Assessment of Inhibition of Cytokine Induction (NF-κB): The inhibition of induction of NF-κB (a key transcripitional activator of the innate immune system, leading to uncontrolled cytokine release^72,73 which ultimately leads to multiple organ failure and the shock syndrome) is quantified using human embryonic kidney 293 cells cotransfected with TLR4 (LPS receptor), CD14 and MD2 (co-receptors), available from InvivoGen, Inc. (HEK-Bluetm, San Diego, Calif.), as per protocols provided by the vendor. Stable expression of secreted alkaline phosphatase (seAP) under control of NF-κB/AP-1 promoters is inducible by LPS, and extracellulare seAP in the supernatant is proportional to NF-κB induction. seAP is assayed spectrophotometrically using an alkaline phosphatase-specific chromogen at 620 nm using a rapid-throughput, automated protocol employing a Bio-Tek P2000 liquid handler. Results showing the ability of polycationic sulfonamide compounds to inhibit the induction of NF-κB by LPS are shown in Tables A-F.

For the compound `CCCCCCCCS(=O)(=O)NCCCNCCCCNCCCN` [MQTS 2351, N^1-Octanylsulfonyl-1,14-diamino-5,10-diazabutadecane], in test [1], the EC50 was 6.64 µM. Further, the concentration for half-maximal inhibition (IC50) in test [2] is 1.44 µM; in test [3] (Homo sapiens, HEK293), 33.3 µM.
On the same counts, the results for `CCCCCCCCCCCCS(=O)(=O)NCCCNCCCCNCCCN` [MQTS 2357, N^1-Dodecanylsulfonyl-1,14-diamino-5,10-diazabutadecane] are 2.69 µM, 1.34 µM and 0.41 µM.
For the compound `CCCCCCCCCCCCCCCCS(=O)(=O)N(CCCN)CCCCNCCCN` [MQTS 2363], the EC50 in test [1] is 45.6 µM. For the same compound, the IC50 amounted to 13.7 µM in test [2] and 2.68 µM in test [3] (Homo sapiens, HEK293). In test [3], the “activity in words (LPS binding / cell-based cytokine inhibition, comment on Table F)” value is reported as “greatly diminished activity”.
Take `CCCCCCCCCCCCCCCCS(=O)(=O)NCCCCCCCCCCCCN` [MQTS 2369]: the half-inhibitory concentration (IC50) in test [3] (Homo sapiens, HEK293) is 200 µM. Further, in test [3], the “activity in words (LPS binding / cell-based cytokine inhibition, comment on Table F)” value is recorded as “much lower activities”.
For `CCCCCCCCCCCCCCCCS(=O)(=O)NCCCOCCCCOCCCN` [MQTS 2370], the EC50 in test [1] is > 5000 µM. In addition, the IC50 is 30.9 µM in test [2] and 22.4 µM in test [3] (Homo sapiens, HEK293). Moreover, the “activity in words (LPS binding / cell-based cytokine inhibition, comment on Table F)” value in test [3] is given as “much lower activities”.
In the case of `CCCCCCCCCCS(=O)(=O)NCCCNCCCCNCCCN` [MQTS 2377, N^1-Decanylsulfonyl-1,14-diamino-5,10-diazabutadecane], the EC50 in test [1] worked out at 3.7 µM. Further, the half-inhibitory concentration (IC50) stood at 4.42 µM in test [2] and 0.5 µM in test [3] (Homo sapiens, HEK293).
Take `CCCCCCCCCCCCCCCCCCS(=O)(=O)NCCCNCCCCNCCCN` [MQTS 2378]: the EC50 in test [1] was 6.01 µM. Also, the 50% inhibitory concentration (IC50) in test [2] amounted to 0.48 µM; in test [3] (Homo sapiens, HEK293), 0.36 µM.
For the compound `CCCCCCCCS(=O)(=O)NCCCNCCCNCCCCNCCCN` [MQTS 2379, N^1-Octanylsulfonyl-1,18-diamino-5,9,14-triazaoctadecane], the EC50 in test [1] turned out to be 2.84 µM. Besides, the half-maximal inhibitory concentration (IC50) in test [2] was 6.47 µM; in test [3] (Homo sapiens, HEK293), 0.816 µM.
With `CCCCCCCCCCCCCCCCCCS(=O)(=O)NCCCNCCCNCCCCNCCCN` [MQTS 2380, N^1-Octadecanylsulfonyl-1,18-diamino-5,9,14-triazaoctadecane], the EC50 in test [1] was 4.45 µM. The IC50 was determined as 0.23 µM in test [2] and 1.06 µM in test [3] (Homo sapiens, HEK293).
In the same order, the values of `CCCCCCCCCCS(=O)(=O)NCCCNCCCNCCCCNCCCN` [MQTS 2381] are 2.89 µM, 1.09 µM and 0.278 µM.
On to `CCCCCCCCCCCCS(=O)(=O)NCCCNCCCNCCCCNCCCN` [MQTS 2382, N^1-Dodecanylsulfonyl-1,18-diamino-5,9,14-triazaoctadecane], for which the EC50 in test [1] is 2.92 µM. For the same compound, the concentration for half-maximal inhibition (IC50) in test [2] is 0.39 µM; in test [3] (Homo sapiens, HEK293), 0.19 µM.
In the same order, the values of `CCCCCCCCCCCCS(=O)(=O)NCCCN(CCCNCCCNCCCCNCCCN)CCCNS(=O)(=O)CCCCCCCCCCCC` [MQTS 2390, N^1-Bis[N-dodecanylsulfonyl-3-aminopropyl]-1,18-diamino-5,9,14-triazaoctadecane] are 6.82 µM, 0.51 µM and 16.4 µM.
In the same order, the values of `CCCCCCCCCCCCCCCCS(=O)(=O)NCCCN(CCCNCCCNCCCCNCCCN)CCCNS(=O)(=O)CCCCCCCCCCCCCCCC` [MQTS 2391] are 9.31 µM, 5.2 µM and 2.68 µM.
In the same order, the values of `CCCCCCCCCCCCCCCCCCS(=O)(=O)NCCCN(CCCNCCCCNCCCN)CCCNS(=O)(=O)CCCCCCCCCCCCCCCCCC` [MQTS 2394, N^1-Bis[N-octadecanylsulfonyl-3-aminopropyl]-1,14-diamino-5,10-diazabutadecane] are 28.3 µM, 2330 µM and 64 µM.
Turning to `CCCCCCCCCCCCCCCCS(=O)(=O)NCCCN(CCCNCCCCNCCCN)CCCNS(=O)(=O)CCCCCCCCCCCCCCCC` [MQTS 2396], the EC50 in test [1] was 26.4 µM. Moreover, the IC50 was found to be 15.1 µM in test [2] and 4.85 µM in test [3] (Homo sapiens, HEK293).
`CCCCCCCCCCCCCCCCCCS(=O)(=O)NCCCNCCCCNCCCCNCCCCNCCCNS(=O)(=O)CCCCCCCCCCCCCCCCCC` [MQTS 2401, N^1,N^14-Bis[N-octadecanylsulfonyl-3-aminopropyl]-1,14-diamino-5,10-diazabutadecane]: in test [1], the EC50 was > 5000 µM. In addition, the IC50 in test [3] stood at 6.49 µM.
Turning to `CCCCCCCCS(=O)(=O)NCCCN(CCCNCCCCNCCCN)CCCNS(=O)(=O)CCCCCCCC` [MQTS 2406, N^1-Bis[N-octanylsulfonyl-3-aminopropyl]-1,14-diamino-5,10-diazabutadecane], the EC50 in test [1] worked out at 2.17 µM. Moreover, in test [3] (Homo sapiens, HEK293), the IC50 was 0.669 µM.
On to `CCCCCCCCCCCCCCCCS(=O)(=O)NCCCN(CCCN)CCCN` [MQTS 2409], for which the EC50 in test [1] amounted to 12.3 µM. For the same compound, the IC50 in test [3] (Homo sapiens, HEK293) is 9.19 µM.
On the same counts, the results for `CCCCCCCCCCCCCCCCS(=O)(=O)NCCN(CCN)CCN` [MQTS 2410] are 3.54 µM and 0.379 µM.
On the same counts, the results for `CCCCCCCCS(=O)(=O)NCCNCCCNCCN` [MQTS 2411] are 10.6 µM and 13.8 µM.
On the same counts, the results for `CCCCCCCCCCCCS(=O)(=O)NCCNCCCNCCN` [MQTS 2412] are 4.77 µM and 0.686 µM.
`CCCCCCCCS(=O)(=O)NCCCNCCCNCCCN` [MQTS 2413]: the EC50 in test [1] turned out to be 6.7 µM. Also, in test [3] (Homo sapiens, HEK293), the concentration for half-maximal inhibition (IC50) came out at 5.56 µM.
In the same order, the values of `CCCCCCCCCCCCS(=O)(=O)NCCCNCCCNCCCN` [MQTS 2414] are 4.27 µM and 0.363 µM.
On to `CCCCCCCCS(=O)(=O)NCCCNC/C=C/CNCCCN` [MQTS 2415], for which the EC50 in test [1] was found to be 12.5 µM. In addition, in test [3] (Homo sapiens, HEK293), the half-inhibitory concentration (IC50) is 12.7 µM.
Regarding `CCCCCCCCCCCCS(=O)(=O)NCCCNC/C=C/CNCCCN` [MQTS 2416], the EC50 in test [1] is 3.83 µM. Moreover, the IC50 in test [3] (Homo sapiens, HEK293) amounted to 0.522 µM. The “activity in words (LPS binding / cell-based cytokine inhibition, comment on Table F)” value in test [3] is “active”.
On to `CCCCCCCCCCS(=O)(=O)NCCCN(CCCNCCCNCCCCNCCCN)CCCNS(=O)(=O)CCCCCCCCCC` [MQTS 2417, N^1-Bis[N-decanylsulfonyl-3-aminopropyl]-1,18-diamino-5,9,14-triazaoctadecane], for which, in test [1], the EC50 is 1.16 µM. For the same compound, the concentration for half-maximal inhibition (IC50) was found to be 0.43 µM in test [2] and 2.2 µM in test [3] (Homo sapiens, HEK293).
Consider `CCCCCCCC(=O)NCCCN(CCCNCCCNCCCCNCCCN)CCCNC(=O)CCCCCCC` [MQTS 2418], for which the EC50 in test [1] worked out at 1 µM. In addition, the IC50 in test [2] turned out to be 2.48 µM; in test [3] (Homo sapiens, HEK293) it was 3.17 µM. Also, the “activity in words (LPS binding / cell-based cytokine inhibition, comment on Table F)” value in test [3] is “greatly diminished activity”.
Consider “N^1,N^14-Bis[N-decanylsulfonyl-3-aminopropyl]-1,14-diamino-5,10-diazabutadecane [MQTS 2398]”, for which the EC50 in test [1] came out at 13.5 µM. In test [3], the half-maximal inhibitory concentration (IC50) worked out at 4.2 µM.
In the same order, the values of “N^1,N^14-Bis[N-dodecanylsulfonyl-3-aminopropyl]-1,14-diamino-5,10-diazabutadecane [MQTS 2399]” are 55.2 µM and 10.3 µM.
In the same order, the values of “N^1,N^14-Bis[N-hexadecanylsulfonyl-3-aminopropyl]-1,14-diamino-5,10-diazabutadecane [MQTS 2400]” are 133 µM and 11.7 µM.
In the same order, the values of “N^1,N^14-Bis[N-octanylsulfonyl-3-aminopropyl]-1,14-diamino-5,10-diazabutadecane [MQTS 2397]” are 2.6 µM and 0.607 µM.
